Measurements published in ChEMBL document CHEMBL5608203, “Design, synthesis and biological evaluation of a new series of imidazothiazole-hydrazone hybrids as dual EGFR and Akt inhibitors for NSCLC therapy” (Eur J Med Chem, 2024).

Tests used:
[1] = Cytotoxicity against human CCD 19Lu cells incubated for 24 hrs by MTT assay; assay type: toxicity, cell-based
[2] = system: A549; experiment: cells; details: Homo sapiens, A549, 24 h
Description: Cytotoxicity against human A549 cells incubated for 24 hrs by MTT assay

[3] = system: A549; experiment: Induction of apoptosis in human A549 cells assessed as viable cells at IC50 incubated for 24 hrs by Annexin V-FITC/PI staining based flow cytometry (reference value: 96.48 %); assay type: functional
[4] = system: A549; experiment: Induction of apoptosis in human A549 cells assessed as early apoptotic cells at IC50 incubated for 24 hrs by Annexin V-FITC/PI staining based flow cytometry (reference value: 0.11 %); assay type: functional
[5] = system: A549; experiment: Induction of apoptosis in human A549 cells assessed as late apoptotic cells at IC50 incubated for 24 hrs by Annexin V-FITC/PI staining based flow cytometry (reference value: 1.36 %); assay type: functional
[6] = system: A549; experiment: Induction of apoptosis in human A549 cells assessed as necrotic cells at IC50 incubated for 24 hrs by Annexin V-FITC/PI staining based flow cytometry (reference value: 2.05 %); assay type: functional
[7] = system: A549; experiment: Induction of apoptosis in human A549 cells assessed as caspase-3-positive cells at IC50 incubated for 24 hrs by flow cytometry (reference value: 1.50 %); assay type: functional
[8] = system: A549; experiment: Induction of apoptosis in human A549 cells assessed as caspase-3-negative cells at IC50 incubated for 24 hrs by flow cytometry (reference value: 98.49 %); assay type: functional
[9] = system: A549; experiment: Induction of cell cycle arrest at G0/G1 phase in human A549 cells at IC50 incubated for 24 hrs by PI staining based flow cytometry (reference value: 9.17 %); assay type: functional
[10] = system: A549; experiment: Induction of cell cycle arrest at S phase in human A549 cells at IC50 incubated for 24 hrs by PI staining based flow cytometry (reference value: 59.62 %); assay type: functional
[11] = system: A549; experiment: Induction of cell cycle arrest at G2/M phase in human A549 cells at IC50 incubated for 24 hrs by PI staining based flow cytometry (reference value: 14.00 %); assay type: functional

Structure (SMILES) | IC50 at 24 h [1] [µM] | IC50 [2] [µM] | Activity [3] [%] | Activity [4] [%] | Activity [5] [%] | Activity [6] [%] | Activity [7] [%] | Activity [8] [%] | Activity [9] [%] | Activity [10] [%] | Activity [11] [%]
N#Cc1ccc(-c2cn3c(CC(=O)N/N=C/c4ccc(-n5cncn5)cc4)csc3n2)cc1 | > 500 | 87.5 |  |  |  |  |  |  |  |  | 
N#Cc1ccc(-c2cn3c(CC(=O)N/N=C/c4ccc(C(F)(F)F)cc4)csc3n2)cc1 |  | > 500 |  |  |  |  |  |  |  |  | 
CC(C)(C)c1ccc(/C=N/NC(=O)Cc2csc3nc(-c4ccc(C#N)cc4)cn23)cc1 | 66.5 | 22.5 | 79.17 | 15.38 | 5.13 | 0.32 | 4.14 | 95.41 | 3.91 | 48.94 | 20.92
N#Cc1ccc(-c2cn3c(CC(=O)N/N=C/c4ccc(N5CCCC5)cc4)csc3n2)cc1 |  | > 500 |  |  |  |  |  |  |  |  | 
N#Cc1ccc(-c2cn3c(CC(=O)N/N=C/c4ccc(O)cc4)csc3n2)cc1 | > 500 | 23.8 | 92.05 | 0.03 | 4.03 | 3.89 | 2.36 | 97.42 | 4.95 | 32.15 | 26.23
N#Cc1ccc(/C=N/NC(=O)Cc2csc3nc(-c4ccc(C#N)cc4)cn23)cc1 | > 500 | 43.7 | 62.71 | 22.33 | 14.85 | 0.11 | 34.94 | 63.66 | 13.81 | 43.76 | 12.95
Cc1ccc(/C=N/NC(=O)Cc2csc3nc(-c4ccc(C#N)cc4)cn23)cc1 | 115 | 17.7 | 77.37 | 16.74 | 5.72 | 0.17 | 1.88 | 97.98 | 6.54 | 62.99 | 13.74
CC(C)c1ccc(/C=N/NC(=O)Cc2csc3nc(-c4ccc(C#N)cc4)cn23)cc1 | < 3.9 | 15.5 |  |  |  |  |  |  |  |  | 
N#Cc1ccc(-c2cn3c(CC(=O)N/N=C/c4ccc(Br)cc4)csc3n2)cc1 |  | > 500 |  |  |  |  |  |  |  |  | 
N#Cc1ccc(-c2cn3c(CC(=O)N/N=C/c4ccccc4)csc3n2)cc1 | > 500 | 51.3 | 87.52 | 8.7 | 3.76 | 0.02 | 3.97 | 95.65 | 7.37 | 38.28 | 16.14
N#Cc1ccc(-c2cn3c(CC(=O)N/N=C/c4ccc(-c5ccccn5)cc4)csc3n2)cc1 |  | > 500 |  |  |  |  |  |  |  |  | 
N#Cc1ccc(-c2cn3c(CC(=O)N/N=C/c4ccc([N+](=O)[O-])cc4)csc3n2)cc1 |  | > 500 |  |  |  |  |  |  |  |  | 
N#Cc1ccc(Oc2ccc(/C=N/NC(=O)Cc3csc4nc(-c5ccc(C#N)cc5)cn34)cc2)cc1 |  | > 500 |  |  |  |  |  |  |  |  | 
N#Cc1ccc(-c2cn3c(CC(=O)N/N=C/c4ccc5ccccc5c4)csc3n2)cc1 |  | > 500 |  |  |  |  |  |  |  |  | 
N#Cc1ccc(-c2cn3c(CC(=O)N/N=C/c4ccc(-n5ccnc5)cc4)csc3n2)cc1 | 1.44 | 16.9 |  |  |  |  |  |  |  |  | 
N#Cc1ccc(-c2cn3c(CC(=O)N/N=C/c4ccc(N5CCCCC5)cc4)csc3n2)cc1 | > 500 | 221 |  |  |  |  |  |  |  |  | 
N#Cc1ccc(-c2cn3c(CC(=O)N/N=C/c4ccc(Oc5ccccc5)cc4)csc3n2)cc1 |  | > 500 |  |  |  |  |  |  |  |  | 
N#Cc1ccc(-c2cn3c(CC(=O)N/N=C/c4ccc(Cl)cc4)csc3n2)cc1 |  | > 500 |  |  |  |  |  |  |  |  | 
CSc1ccc(/C=N/NC(=O)Cc2csc3nc(-c4ccc(C#N)cc4)cn23)cc1 | > 500 | 379 |  |  |  |  |  |  |  |  | 
COc1ccc(/C=N/NC(=O)Cc2csc3nc(-c4ccc(C#N)cc4)cn23)cc1 | 51.7 | 14.3 | 73.36 | 21.98 | 4.42 | 0.24 | 2.58 | 97.08 | 5.65 | 68.81 | 10.28
N#Cc1ccc(-c2cn3c(CC(=O)N/N=C/c4ccc(F)cc4)csc3n2)cc1 | 44.4 | 101 |  |  |  |  |  |  |  |  | 
CS(=O)(=O)c1ccc(/C=N/NC(=O)Cc2csc3nc(-c4ccc(C#N)cc4)cn23)cc1 | 160 | 133 |  |  |  |  |  |  |  |  | 
N#Cc1ccc(-c2cn3c(CC(=O)N/N=C/c4ccc(Oc5ccc([N+](=O)[O-])cc5)cc4)csc3n2)cc1 |  | > 500 |  |  |  |  |  |  |  |  | 
N#Cc1ccc(-c2cn3c(CC(=O)N/N=C/c4ccc(Oc5ccc(F)cc5)cc4)csc3n2)cc1 |  | > 500 |  |  |  |  |  |  |  |  | 
N#Cc1ccc(-c2cn3c(CC(=O)N/N=C/c4ccc(N5CCOCC5)cc4)csc3n2)cc1 | 4.9 | 12.2 |  |  |  |  |  |  |  |  | 
N#Cc1ccc(-c2cn3c(CC(=O)N/N=C/c4ccc(Oc5ccc(Cl)cc5)cc4)csc3n2)cc1 |  | > 500 |  |  |  |  |  |  |  |  | 
N#Cc1ccc(-c2cn3c(CC(=O)N/N=C/c4ccc(Oc5ccc(Br)cc5)cc4)csc3n2)cc1 |  | > 500 |  |  |  |  |  |  |  |  | 
C#Cc1cccc(Nc2ncnc3cc(OCCOC)c(OCCOC)cc23)c1 [ERLOTINIB] |  |  | 82.76 | 12.28 | 4.86 | 0.09 | 6.31 | 93.1 | 12.58 | 54.85 | 13.45
CCn1c(-c2nonc2N)nc2c(C#CC(C)(C)O)ncc(OC[C@H]3CCCNC3)c21 [GSK-690693] |  | 11.8 | 36.36 | 43 | 18.78 | 1.86 | 24.29 | 73.93 | 30.35 | 27.55 | 13.5
